{
  "source": "patent US20040024543A1",
  "about": "“Methods and systems for analyzing complex biological systems” (priority 2001, published 2004)",
  "system": "Saccharomyces cerevisiae wild type strain BY4743",
  "assay": "AF1 yeast metabolite analysis by GC-MS and LC-MS after antifungal drug treatment; further: test concentration or dose not given here",
  "type": "cell-based",
  "data": [
    {"smiles": "OC(Cn1cncn1)(Cn1cncn1)c1ccc(F)cc1F", "note": "[Fluconazole]", "values": [
      {"measurement": "Fold Change", "setting": "4-aminobenzoic acid, pLC", "value": 0},
      {"measurement": "Fold Change", "setting": "4-methylcatechol, nLC", "value": 0},
      {"measurement": "Fold Change", "setting": "4-methylcatechol, pLC", "value": 0},
      {"measurement": "Fold Change", "setting": "5hydroxyLtryptophan, nLC", "value": 0},
      {"measurement": "Fold Change", "setting": "6-benzylaminopurine, nLC", "value": 0},
      {"measurement": "Fold Change", "setting": "6benzylaminopurine, pLC", "value": 0},
      {"measurement": "Fold Change", "setting": "DL-aminoadipic acid, pLC", "value": 0.1155},
      {"measurement": "Fold Change", "setting": "DLaminoadipic acid, nLC", "value": 0.443},
      {"measurement": "Fold Change", "setting": "abscisic acid, nLC", "value": 0},
      {"measurement": "Fold Change", "setting": "abscisic acid, pLC", "value": 0},
      {"measurement": "Fold Change", "setting": "adenine, nLC", "value": 0},
      {"measurement": "Fold Change", "setting": "adenosine, nLC", "value": 0},
      {"measurement": "Fold Change", "setting": "allantoic acid, pLC", "value": 0},
      {"measurement": "Fold Change", "setting": "anthranilic acid, nLC", "value": 0},
      {"measurement": "Fold Change", "setting": "anthranilic acid, pLC", "value": 0},
      {"measurement": "Fold Change", "setting": "arginine, nLC", "value": 0.6484},
      {"measurement": "Fold Change", "setting": "arginine, pLC", "value": 0.1179},
      {"measurement": "Fold Change", "setting": "argininosuccinate, nLC", "value": 0},
      {"measurement": "Fold Change", "setting": "argininosuccinate, pLC", "value": 0},
      {"measurement": "Fold Change", "setting": "asparagine, GC", "value": 0.3999},
      {"measurement": "Fold Change", "setting": "asparagine, nLC", "value": 0.3545},
      {"measurement": "Fold Change", "setting": "asparagine, pLC", "value": 0.3192},
      {"measurement": "Fold Change", "setting": "aspartic acid, GC", "value": 0.4337},
      {"measurement": "Fold Change", "setting": "aspartic acid, pLC", "value": 0.214},
      {"measurement": "Fold Change", "setting": "aspartic, nLC", "value": 0.4993},
      {"measurement": "Fold Change", "setting": "benzoic acid, nLC", "value": 0},
      {"measurement": "Fold Change", "setting": "biotin, nLC", "value": 0.3455},
      {"measurement": "Fold Change", "setting": "biotin, pLC", "value": 0},
      {"measurement": "Fold Change", "setting": "caffeic acid, nLC", "value": "−0.4711"},
      {"measurement": "Fold Change", "setting": "caffeine, pLC", "value": 0},
      {"measurement": "Fold Change", "setting": "campesterol, GC", "value": 0},
      {"measurement": "Fold Change", "setting": "catechol, nLC", "value": 0},
      {"measurement": "Fold Change", "setting": "cinnamic acid, nLC", "value": 0},
      {"measurement": "Fold Change", "setting": "citric acid TME, pLC", "value": 0},
      {"measurement": "Fold Change", "setting": "citricanoic/itaconi, nLC", "value": 0},
      {"measurement": "Fold Change", "setting": "citrulline, nLC", "value": 0},
      {"measurement": "Fold Change", "setting": "citrulline, pLC", "value": 0.08252},
      {"measurement": "Fold Change", "setting": "coumaric acid, nLC", "value": 0},
      {"measurement": "Fold Change", "setting": "cytidine, nLC", "value": "−0.7969"},
      {"measurement": "Fold Change", "setting": "cytidine, pLC", "value": 0},
      {"measurement": "Fold Change", "setting": "cytosine, nLC", "value": 0},
      {"measurement": "Fold Change", "setting": "cytosine, pLC", "value": 0},
      {"measurement": "Fold Change", "setting": "decanoic acid, nLC", "value": 0.1846},
      {"measurement": "Fold Change", "setting": "desmosterol, GC", "value": 0},
      {"measurement": "Fold Change", "setting": "diaminopimelic acid, nLC", "value": 0},
      {"measurement": "Fold Change", "setting": "diaminopimelic acid, pLC", "value": 0},
      {"measurement": "Fold Change", "setting": "dihydrofolic acid, nLC", "value": 0},
      {"measurement": "Fold Change", "setting": "dihydrofolic acid, pLC", "value": 0},
      {"measurement": "Fold Change", "setting": "dipicolinic acid, pLC", "value": 0},
      {"measurement": "Fold Change", "setting": "disaccaride1, GC", "value": 0.3883},
      {"measurement": "Fold Change", "setting": "disaccaride2, GC", "value": 0.1517},
      {"measurement": "Fold Change", "setting": "disaccaride3, GC", "value": 0.5803},
      {"measurement": "Fold Change", "setting": "ergosterol, GC", "value": 0.948},
      {"measurement": "Fold Change", "setting": "estrone, nLC", "value": 0},
      {"measurement": "Fold Change", "setting": "farnesol, nLC", "value": 0},
      {"measurement": "Fold Change", "setting": "folic acid, nLC", "value": 0},
      {"measurement": "Fold Change", "setting": "folic acid, pLC", "value": 0},
      {"measurement": "Fold Change", "setting": "fucosterol, GC", "value": 6.665},
      {"measurement": "Fold Change", "setting": "fumaric/3m2oxobutan, nLC", "value": 0.6009},
      {"measurement": "Fold Change", "setting": "gallic acid, nLC", "value": 0.5071},
      {"measurement": "Fold Change", "setting": "gibberellic, nLC", "value": 0},
      {"measurement": "Fold Change", "setting": "glucosamine6PO4, nLC", "value": "−0.9951"},
      {"measurement": "Fold Change", "setting": "glucosamine6PO4, pLC", "value": 0},
      {"measurement": "Fold Change", "setting": "glucosamine, pLC", "value": 0},
      {"measurement": "Fold Change", "setting": "glutamate, pLC", "value": "−0.06179"},
      {"measurement": "Fold Change", "setting": "glutamic/acetylseri, nLC", "value": 0.3842},
      {"measurement": "Fold Change", "setting": "glutamine, GC", "value": 0.5242},
      {"measurement": "Fold Change", "setting": "glutamine/lysine, nLC", "value": 0.3309},
      {"measurement": "Fold Change", "setting": "glutamine/lysine, pLC", "value": 0.2242},
      {"measurement": "Fold Change", "setting": "glutathione, pLC", "value": "−0.05832"},
      {"measurement": "Fold Change", "setting": "glycanopyrose, GC", "value": 1.202},
      {"measurement": "Fold Change", "setting": "glycerol, GC", "value": 0.2187},
      {"measurement": "Fold Change", "setting": "glycine, GC", "value": "−0.1037"},
      {"measurement": "Fold Change", "setting": "guanine, nLC", "value": 0},
      {"measurement": "Fold Change", "setting": "guanosine, nLC", "value": "−0.993"},
      {"measurement": "Fold Change", "setting": "guanosine, pLC", "value": "−0.9981"},
      {"measurement": "Fold Change", "setting": "hexadecanoic acid, GC", "value": 0.1343},
      {"measurement": "Fold Change", "setting": "histidine, nLC", "value": 0},
      {"measurement": "Fold Change", "setting": "histidine, pLC", "value": 0},
      {"measurement": "Fold Change", "setting": "homogentisic/uric, nLC", "value": 0},
      {"measurement": "Fold Change", "setting": "hydrocortisone, nLC", "value": 0},
      {"measurement": "Fold Change", "setting": "hydrocortisone, pLC", "value": 0},
      {"measurement": "Fold Change", "setting": "hypoxanthine, nLC", "value": 0.7757},
      {"measurement": "Fold Change", "setting": "hypoxanthine, pLC", "value": 0.1298},
      {"measurement": "Fold Change", "setting": "indole3pyruvic acid, nLC", "value": 0},
      {"measurement": "Fold Change", "setting": "inostol/glucos/sorb, nLC", "value": "−0.4744"},
      {"measurement": "Fold Change", "setting": "iso citric acid, GC", "value": 0.3923},
      {"measurement": "Fold Change", "setting": "isocitric/citric/qu, nLC", "value": 1.457},
      {"measurement": "Fold Change", "setting": "isoleucine, GC", "value": 0.391},
      {"measurement": "Fold Change", "setting": "itaconic acid dimes, pLC", "value": 0},
      {"measurement": "Fold Change", "setting": "jasmonic acid, nLC", "value": 0},
      {"measurement": "Fold Change", "setting": "kinetin, nLC", "value": 0},
      {"measurement": "Fold Change", "setting": "kinetin, pLC", "value": 0},
      {"measurement": "Fold Change", "setting": "lactic acid, nLC", "value": "−0.0439"},
      {"measurement": "Fold Change", "setting": "lanosterol, GC", "value": 8.462},
      {"measurement": "Fold Change", "setting": "lauric acid, nLC", "value": 0.3906},
      {"measurement": "Fold Change", "setting": "leucine, GC", "value": 0.3387}
    ]}
  ]
}
